Among the data in publication PMC6934184, “Selective DNA-PKcs inhibition extends the therapeutic index of localized radiotherapy and chemotherapy” (The Journal of Clinical Investigation, 2019) are inhibition values, retold here.

The structures appear in SMILES notation.

The target of this assay is T1, CAMK1 (CaMK1) (Homo sapiens, UniProt Q14012).
T1 construct: purchased Thermo Fisher Scientific (Life Technologies) SelectScreen
The experiment in a line: SelectScreen Adapta. Format: biochemical. As to conditions: ATP 10 µM. The essentials: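 NU5455 was profiled across the SelectScreen Broad panel of kinase activity and binding assays. Z'LYTE reactions such as CSF1R ran at apparent Km ATP, while the Adapta CAMK1 assay used ATP listed as 10. Values are given as percent.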

T1 sequence (Q14012 whole entry): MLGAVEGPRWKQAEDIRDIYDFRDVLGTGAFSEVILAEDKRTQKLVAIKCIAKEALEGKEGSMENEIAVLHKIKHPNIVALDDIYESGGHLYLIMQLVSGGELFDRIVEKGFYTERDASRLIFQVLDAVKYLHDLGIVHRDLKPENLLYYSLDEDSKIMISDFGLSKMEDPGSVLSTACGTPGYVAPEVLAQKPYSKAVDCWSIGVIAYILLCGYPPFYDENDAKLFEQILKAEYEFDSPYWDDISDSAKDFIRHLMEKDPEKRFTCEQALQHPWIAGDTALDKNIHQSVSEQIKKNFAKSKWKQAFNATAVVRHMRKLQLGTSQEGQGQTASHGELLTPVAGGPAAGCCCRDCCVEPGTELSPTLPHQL

In the case of `CN(C(=O)CN1CCOCC1)c1ccc2sc3c(-c4cccc5c(=O)cc(N6CC7CCC(C6)O7)oc45)cccc3c2c1` [NU5455], the inhibition at 1 µM amounted to 0.8%.

The inhibition is the change of the read-out against control, counted positive when it falls. The low end stands for little suppression, the high end for strong suppression.
